Results on 16 molecules are retold here after patent US6117889A, “7-Azabicyclo-[2.2.1]-heptane and -heptene derivatives as analgesics and anti-inflammatory agents” (priority 1996, dated 2000).

Assay [1] deals with acetylcholine nicotinic receptor. Kind of assay: nicotinic receptor binding, [3H]-NMCI radioligand, rat cortex (Table 5). Here is the method: 7-aza-bicyclo[2.2.1]-heptanes and -heptenes were evaluated for their ability to bind to the acetylcholine nicotinic receptor using a standard binding assay, e.g. X. Zhang and A. Nordberg, Arch. Pharmacol., 348, 28 (1993); R. E. Middleton and J. B. Cohen, Biochemistry, 30, 6987 (1991), with nicotine sulfate as the reference compound, rat cortex as the tissue substrate, and a [^3 H]-NMCI radioligand.

A short description of assay [2]: analgesic activity, Straub-Tail assay (Table 4). It is filed as in vivo. An excerpt: A wide variety of biological assays have been used to evaluate the ability of a compound to act as an analgesic. Any of these known assays can be used to evaluate the analgesic ability of the compounds disclosed herein. The Straub-tail reaction, which is characteristic of opiate alkaloids, has been used as an assay for opiate agonists and antagonists. The assay is described in detail in Br. J. of Pharmacol. 1969, 36, 225. Another accepted assay for analgesic activity is the hot plate analgesia assay, described in J. of Pharmacol. Exp. Therap. 1953, 107, 385. An assay for the evaluation of the ability of a compound to bind to an opiate receptor is described in Mol. Pharmacol. 1974, 10, 868.
[…] Daly et al. J. Am. […] Chem. Soc. 1992, 114, 3475; T. Li, et al. Bioorganic and Medicinal Chemistry Letters 1993, 3, 2759.

Where [3] appears, read: Straub-Tail assay, read-out: ED50.

Each structure is given as a SMILES string. Where two headings read alike, the source gives them in different places.

In assay [1] (testing level 10^-9), `N=CN1C2CCC1C(c1cccnc1)C2` (stereo not drawn) came in with an Inhibition % of 5%.

Consider `Clc1ccc([C@@H]2C[C@H]3CC[C@@H]2N3CC2CC2)cn1` (relative stereo), for which the “analgesic activity (Straub-Tail), % at 1000 μg/Kg” value in assay [2] (@ 1000 (μg/Kg)) came out at 100%.

For `CC(C)(C)Oc1ccc([C@@H]2C[C@H]3CC[C@@H]2N3)cn1` (relative stereo), the ED50 in assay [2] (setting [3]) was roughly 1 mg/kg.

In assay [1] (testing level 10^-7 M), `Clc1ccc(C2CC3CCC2N3)cn1` (stereo not drawn) [R = H] returned an Inhibition % of 24%.

For `ClCCN1[C@@H]2CC[C@H]1[C@H](c1ccc(Cl)nc1)C2` (relative stereo), the ED50 in assay [2] is roughly 0.1 mg/kg.

For the molecule `N=CN1[C@@H]2CC[C@H]1[C@H](c1ccc(Cl)nc1)C2` (relative stereo), in assay [2] (@ 100), the “analgesic activity (Straub-Tail), % at 100” value came out at 99%.

`Clc1ccc([C@@H]2C[C@H]3C=C[C@@H]2N3)cn1` (relative stereo): the median effective dose (ED50) in assay [2] (setting [3]) was less than 1 mg/kg.

As to `COc1ccc([C@@H]2C[C@H]3CC[C@@H]2N3)cn1` (relative stereo), in assay [2] (setting [3]), the ED50 worked out at 0.75 mg/kg.

Consider `C[N+]1(C)C2CCC1C(c1ccc(Cl)nc1)C2` (stereo not drawn), for which the Inhibition % in assay [1] (testing level 10^-7 M) was 100%; in assay [1] (testing level 10^-9) it was 49%.

Regarding `N=CN1C2CCC1C(c1ccc(Cl)nc1)C2` (stereo not drawn), the Inhibition % amounted to 49% in assay [1] (testing level 10^-9) and 22% in assay [1] (testing level 10^-11).

`c1cncc([C@@H]2C[C@H]3CC[C@@H]2N3)c1` (relative stereo): in assay [2] (setting [3]), the ED50 is 0.25 mg/kg.

As to `CN1[C@@H]2CC[C@H]1[C@H](c1ccc(Cl)nc1)C2` (relative stereo) [drawing 33], the ED50 in assay [2] (setting [3]) was less than 0.01 mg/kg.

Take `Clc1ccc([C@@H]2C[C@H]3CC[C@@H]2N3)cn1` (relative stereo): in assay [2] (Straub-Tail assay), the ED50 turned out to be 0.01 mg/kg.

As to `Fc1ccc([C@@H]2C[C@H]3CC[C@@H]2N3)cn1` (relative stereo), the ED50 in assay [2] (setting [3]) was roughly 0.05 mg/kg.

As for `Clc1ccc([C@@H]2C[C@H]3CC[C@@H]2N3CCc2ccccc2)cn1` (relative stereo), the ED50 in assay [2] (setting [3]) was less than 1 mg/kg.

The molecule `CN1C2CCC1C(c1ccc(Cl)nc1)C2` (stereo not drawn) [R = CH3] yielded an Inhibition % in assay [1] (testing level 10^-5 M) of 81%.

The term ED50 denotes the midpoint of the dose-response relation.
